Laboratory results: the supplement of paper PMC6723410
“And” between values parts separate entries of the source, which are not always exact repeats. Equal entries are not always repeated.

What follows are molecules tested on GUMC-403 (assay: viability at highest tested concentration (max response) relative to DMSO (% of DMSO control); higher = less cytotoxic). Settings: library / dose series: MIPE library, 11-point 1:3 dilution; top concentration 23 µM; 48 h.
Method in brief: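 Viability at the highest tested concentration is given relative to vehicle control. For this, conditionally reprogrammed patient-derived GUMC-403 papilloma cells at 700/well in 1536-well plates were exposed to 23 nL of pinned compound for 48 h. Luminescence from CellTiter-Glo was read on a ViewLux and scaled between empty wells (0%) and vehicle wells (100%).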
Work on `COc1cc(O)c2c(c1)C(=O)c1cc(C)cc(O)c1C2=O` yielded a viability of 114. For `C[C@H]1CN(C[C@@H](C)N1)C2=C(F)C3=C(C(=C2F)N)C(=O)\C(=C/N3C4CC4)C(O)=O`, the viability was 133.

Same assay, conditions: library / dose series: MIPE library, 11-point 1:3 dilution; top concentration 46.1 µM; 48 h
`NC(=O)Nc1sc(-c2ccc(F)cc2)cc1C(N)=O` gave a viability of 51.7. With `CC(C)n1nc(-c2ccc3oc(N)nc3c2)c2c(N)ncnc21` the viability was 29.8. With `ClC1=CC(=CC=C1)N2CCN(CCCN3\N=C4\C=C/C=C\N4C3=O)CC2` the viability was 103. `O=C(O)CCc1ccc(NCc2cccc(Oc3ccccc3)c2)cc1` gave a viability of 122. `CC(C)(C)NC(=O)[C@H]1CC[C@H]2[C@@H]3CC[C@H]4NC(=O)\C=C/[C@]4(C)[C@H]3CC[C@]12C` showed a viability of 66.2. For `NC(=O)c1c(OCc2c(F)cc(Br)cc2F)nsc1NC(=O)NCCCCN1CCCC1`, the viability was 101. For `OC[C@H]1O[C@@H](OCCc2ccc(O)cc2)[C@H](O)[C@@H](O)[C@@H]1O`, the viability was 107. `CC1(C)CCC(=C(\C1)C2=CC=C(Cl)C=C2)/CN3CCN(CC3)C4=CC(=C(C=C4)C(=O)N[S+]([O-])(=O)C5=CC=C(NCC6CCOCC6)C(=C5)[N+]([O-])=O)OC7=CN=C8[NH]C=CC8=C7` was tested, and the viability was 105. Work on `NC/1=N/C(=O)N(/C=N1)[C@@H]2O[C@H](CO)[C@@H](O)[C@H]2O` yielded a viability of 103. `CCCCCCCCCCCCc1ccc([S+](=O)([O-])Nc2nncs2)cc1` showed a viability of 118. With `C/C=C/C(=O)N(CC)c1ccccc1C` the viability was 110. With `O=[S+]([O-])(CCSSCC[S+](=O)([O-])[O][Na])[O][Na]` the viability was 119. `Cc1cc(Nc2nc(N[C@@H](C)c3ccc(F)cc3)c(C#N)cc2F)n[nH]1` was tested, and the viability was 65.1. `CC/1=C(/N2[C@H](SC1)[C@H](NC(=O)[C@H](N)\C3=C\C\C=C/C3)C2=O)C(O)=O` showed a viability of 121. Work on `NC(=O)N1c2ccccc2CC(=O)c2ccccc21` yielded a viability of 111. Work on `CN1CC(=O)N2[C@H](c3ccc4c(c3)OCO4)c3[nH]c4ccccc4c3C[C@@H]2C1=O` yielded a viability of 91.5. In the case of `CN(C)CCCNC(=O)c1ccc(-c2cc(O)c3ncccc3c2)cc1`, the viability is reported as 120. `OC1=CC=C(C=C1)\C2=C\C(=O)C3=C(O2)C=C(O)C=C3O` gave a viability of 138. Molecule `CCN(CC)Cc1ccc2cc(COC(=O)Nc3ccc(C(=O)NO)cc3)ccc2c1` has a viability of 78.6. `Cc1cccc(-c2[nH]c(C(C)(C)C)nc2-c2ccc3c(c2)OCO3)n1` was tested, and the viability was 118. For `COc1cc2nc(N(C)CCCNC(=O)C3CCCO3)nc(N)c2cc1OC` (stereo not given), the viability was 116. With `N[S+]([O-])(=O)C1=C(Cl)C=C2\N=C/N[S+]([O-])(=O)C2=C1` the viability was 127. For `CCC[C@@H]1C[C@@H](C(=O)N[C@@H]([C@H]2O[C@H](SC)[C@H](O)[C@@H](O)[C@H]2O)[C@@H](C)O)N(C)C1.Cl`, the viability was 101. `N/C(=N\C(=O)c1nc(Cl)c(N)nc1N)NCc1ccccc1` was tested, and the viability was 130. Work on `FC1=C(C=C(C\C2=N\NC(=O)C3=C2C=CC=C3)C=C1)C(=O)N4CCN(CC4)C(=O)C5CC5` yielded a viability of 82.6. In the case of `Clc1cccc(-c2nnnn2Cc2cccnc2)c1Cl`, the viability is reported as 113. Work on `O=C(O)CCCc1ccc(N(CCCl)CCCl)cc1` yielded a viability of 111. For `COC1=CC=C(C=C1)C/2=C/OC3=C(C(=CC(=C3)O)O)C2=O`, the viability was 120. Work on `CNC(=O)c1c(F)cccc1Nc1nc(Nc2cc3c(cc2OC)CCN3C(=O)CN(C)C)nc2[nH]ccc12` yielded a viability of 84.8. `NNc1nncc2ccccc12` showed a viability of 117. `O=C(O)CC/C=C\CC[C@@H]1[C@@H](N2CCCCC2)[C@@H](O)C[C@@H]1OCc1ccc(-c2ccccc2)cc1` gave a viability of 112. For `C[C@](O)(COc1ccc(C#N)cc1)C(=O)Nc1ccc(C#N)c(C(F)(F)F)c1`, the viability was 93.8. `C=CCn1c(=O)c2cnc(Nc3ccc(N4CCN(C)CC4)cc3)nc2n1-c1cccc(C(C)(C)O)n1` showed a viability of 63.1. `OC1CCC(CC1)N2\C=N/C3=C(C2=N)C(=C([N]3CC4=CC=CC=C4)C5=CC=CC=C5)C6=CC=CC=C6` (stereo not given) showed a viability of 126. With `CC1(C)C(N(O)C(=O)Nc2ccc(Cl)cc2)N(c2ccc(Cl)cc2)C(=O)N1CC(=O)N/N=C/C=C/c1ccc([N+](=O)[O-])o1` (stereo not given) the viability was 85.4. With `CC1Cc2ccccc2N1NC(=O)c1ccc(Cl)c([S+](N)(=O)[O-])c1` (stereo not given) the viability was 105. `C[C@H](Cc1ccc(O)c(O)c1)[C@@H](C)Cc1ccc(O)c(O)c1` was tested, and the viability was 110. In the case of `C[C@H]1C[C@H]2[C@@H]3CC[C@](O)(C(=O)CO)[C@@]3(C)C[C@H](O)[C@@H]2[C@@]\4(C)/C=C\C(=O)\C=C14`, the viability is reported as 121. In the case of `CC(C(=O)O)c1ccc(-c2ccccc2)c(F)c1` (stereo not given), the viability is reported as 110. Molecule `C=C1/C(=C/C=C2\CCCC3(C)[C@@H]([C@H](C)/C=C/C=C/C(O)(CC)CC)CC[C@@H]23)C[C@@H](O)C[C@@H]1O` (stereo not given in full) has a viability of 148. Work on `Cc1ccc(C)c(OCCCC(C)(C)C(=O)O)c1` yielded a viability of 108. With `Oc1ccc(C2CNCCc3c2cc(O)c(O)c3Cl)cc1` (stereo not given) the viability was 120. `C\C1=C(\C=C(C#N)/C(=O)N1)C2=C[N]3C=CN=C3C=C2` was tested, and the viability was 96. For `CC(C)(C)Cn1c(N)nc2ccc(-c3[nH]c(C(C)(C)C)nc3-c3ccc(F)cc3)nc21`, the viability was 76.7. With `C\C1=C\C(=O)C2=C(C=CC=C2)C1=O` the viability was 109. In the case of `CCCCCOC(=O)NC\1=N\C(=O)N(\C=C1F)[C@@H]2O[C@H](C)[C@@H](O)[C@H]2O`, the viability is reported as 83.9. With `CCOc1cc(N2CCC(O)CC2)ccc1Nc1ncc2c(n1)N(C)c1ccccc1C(=O)N2C` the viability was 89.8. Work on `CN1CCN(CCCN2c3ccccc3Sc3ccc(Cl)cc32)CC1.O=C(O)/C=C\C(=O)O.O=C(O)/C=C\C(=O)O` yielded a viability of 95.8. Work on `COC1CCC(CC1)N(C(=O)C2CCC(C)CC2)C3=C(SC(=C3)\C4=C\CCCC4)C(O)=O` (stereo not given) yielded a viability of 110. `COc1cc(OC)c(OC)cc1C=O` showed a viability of 107. Work on `Cc1cccc(CN2CCN(C(c3ccccc3)c3ccc(Cl)cc3)CC2)c1` (stereo not given) yielded a viability of 87.2. `O=C1CCC[C@@H]2[C@H]3CCC[N+]4([O-])CCC[C@@H](CN12)[C@@H]34` (stereo not given in full) gave a viability of 106. `CCC(C)N1\N=C/N(C1=O)C2=CC=C(C=C2)N3CCN(CC3)C4=CC=C(OC[C@H]5CO[C@@](C[N]6C=NC=N6)(O5)C7=CC=C(Cl)C=C7Cl)C=C4` (stereo not given in full) was tested, and the viability was 101. `NC/1=N/C2=C([NH]C=N2)C(=S)N1` gave a viability of 97.1. For `CNCC(O)C(O)C(O)C(O)CO.O=C(O)c1ccc(-c2cc3cccnc3c(-c3ccc4nonc4c3)n2)cc1`, the viability was 117. Molecule `COc1cc2nccc(Oc3ccc(NC(=O)Nc4ccc(F)cc4F)c(F)c3)c2cc1OC` has a viability of 91.3. Molecule `CN1CCc2c(n(Cc3ccc(C(=O)NO)cc3)c3ccccc23)C1` has a viability of 107. For `O=C(O[C@H]1C[C@H]2CC[C@@H](C1)[N+]21CCCC1)C(O)(c1ccccc1)c1ccccc1.[Cl-]`, the viability was 140. For `C[S+](=O)([O-])c1ccc(C(=O)Nc2ccc(Cl)c(-c3ccccn3)c2)c(Cl)c1`, the viability was 100. `COc1ccc2cccc(CCNC(C)=O)c2c1` was tested, and the viability was 108. `Cl.Cl.Cl.O[C@@H](COc1cccc2ncccc12)CN1CCN([C@@H]2c3ccccc3[C@@H]3[C@H](c4ccccc42)C3(F)F)CC1` showed a viability of 70.9. `C[C@H](NC(=O)c1sccc1OCc1ccc(Cl)cc1)c1ccccc1` gave a viability of 95.3. For `CN1CCN2c3ncccc3Cc3ccccc3C2C1` (stereo not given), the viability was 101. In the case of `Cc1csc(-c2nnc(Nc3ccc(Oc4ncccc4-c4ccnc(N)n4)cc3)c3ccccc23)c1`, the viability is reported as 101. In the case of `c1ccc(-c2oc3ncnc(NC[C@@H]4CCCO4)c3c2-c2ccccc2)cc1`, the viability is reported as 100. `Oc1ccc(/C=C/c2cc(O)cc(O)c2)cc1` showed a viability of 96.3. In the case of `COCCCOc1ccnc(C[S+]([O-])c2nc3ccccc3[n-]2)c1C` (stereo not given), the viability is reported as 120. In the case of `CC=CC1=C(C(=O)O)N2C(=O)[C@@H](NC(=O)[C@H](N)c3ccc(O)cc3)[C@H]2SC1.O`, the viability is reported as 147. `COc1cc2c(cc1-c1c(C)noc1C)ncc1[nH]c(=O)n([C@H](C)c3ccccn3)c12` gave a viability of 69.1. For `CCOC(=O)\C1=C\[C@]2(CC)CCCN3CCC4=C([C@H]23)[N]1C5=C4C=CC=C5`, the viability was 83.9. For `O=C(c1ccc(F)cc1)N1CCC[C@H](c2nc(-c3ccc(F)cc3)no2)C1`, the viability was 119. With `O=C1NCCc2[nH]c(-c3ccncc3)cc21` the viability was 125. `CON(C)C(=O)N1\N=C(/S[C@]1(CCCN)C2=CC=CC=C2)C3=CC(=CC=C3F)F` was tested, and the viability was 116. With `Nc1nc(Cl)nc2c1ncn2[C@@H]1O[C@H](CO)[C@@H](O)[C@@H]1F` the viability was 104. `CC(=O)O[C@@]12CO[C@@H]1C[C@H](O)[C@]3(C)[C@@H]2[C@H](OC(=O)C4=CC=CC=C4)[C@]5(O)C[C@H](O)/C(=C(/[C@@H](O)C3=O)C5(C)C)C` was tested, and the viability was 117. `CC(C)OC(=O)OCOP(=O)(CO[C@H](C)Cn1cnc2c(N)ncnc21)OCOC(=O)OC(C)C.O=C(O)C=CC(=O)O` was tested, and the viability was 118 and 94.5. Work on `Clc1cccc(-n2nnnc2NCc2ccccc2Oc2ccccn2)c1Cl` yielded a viability of 116. In the case of `CN1[C@@H]2CC(O)C[C@H]1[C@@H]1O[C@@H]12` (stereo not given in full), the viability is reported as 92.4. For `CNC(=O)[C@H](CC/1=C/N=C\2/C=C\C\C=C12)NC(=O)[C@H](CC(C)C)CC(=O)NO`, the viability was 66.4. `CCCCC(C=O)NC(=O)C(CC(C)C)NC(=O)OCc1ccccc1` (stereo not given) was tested, and the viability was 82. For `C[C@]12Cc3cn[nH]c3C[C@@H]1CC[C@@H]1[C@@H]2CC[C@@]2(C)[C@H]1CC[C@]2(C)O`, the viability was 108. With `Nc1nccc(-c2ccc3noc(-c4ccc(Cl)cc4)c3c2)n1` the viability was 80.1.

Same assay, conditions: library / dose series: MIPE library, 11-point 1:3 dilution; top concentration 92.2 µM; 48 h
`C[C@]12CCC(=O)C=C1CC[C@@H]1[C@@H]2CC[C@@]2(C)[C@H]1CC[C@]2(C)O` was tested, and the viability was 128.
